Experiments:
Type in all cases: cell-based, human
salivary gland cells = test: Primary culture and subculture of salivary gland cells using a Rock inhibitor (cell morphology); settings: Rock inhibitor-containing medium (10 μM), vs standard medium; FIG. 1
Description: (§1) (i) Patient-derived salivary gland cells for use as a source material were taken in a required amount from the labial glands of each patient. (ii) The cells were washed three times with phosphate-buffered physiological saline (PBS) (supplemented with 10 units/ml of penicillin and 100 μg/ml of streptomycin: Sigma-Aldrich). (iii) The cells were cut into small pieces with sterilized iris scissors and a surgical knife (No. 11). (iv) After addition of trypsin (TrypLE Select Enzyme, Gibco, Code No. A12177-01), the cells were shaken at 37° C. for 30 minutes. (v) The cells were mixed with Dulbecco's modified Eagle medium (DMEM: Sigma-Aldrich) (supplemented with 10% fetal bovine serum: Nichirei Bioscience Inc., Japan, 10 units/ml of penicillin and 100 μg/ml of streptomycin), and centrifugation (at 1000 rpm for 5 minutes) was repeated three times. (vi) The cells were mixed with DMEM (supplemented with 10% fetal bovine serum, 10 units/ml of penicillin, 100 μg/ml of streptomycin, 10 μM of the Rock kinase inhibitor and 0.3 μM of L-ascorbic acid 2-phosphate: Sigma-Aldrich) (DMEM+) and then seeded into collagen type 1-coated cell culture dishes (IWAKI). (vii) The cells were washed with PBS once every three days to replace the above medium. (i) The cultured cells were subcultured at 80% confluency. The cells were washed three times with phosphate-buffered physiological saline. […]

[1] = test system: cancer-associated fibroblasts (CAFs); test: Cell culture of cancer-associated fibroblasts using a Rho kinase inhibitor (cell morphology); settings: inhibitor-containing medium (10 μM); passage 7 with inhibitor vs passage 1 without; FIG. 14
Description: as §1, with “Odontoma cells, oral mucosal epithelial cells, fibroblasts, and cancer-associated fibroblasts (CAFs) (i)” for “(i)”, “Patient-derived” for “Patient-derived salivary gland”, “amount as described above.” for “amount from the labial glands of each patient.”, “type I-coated” for “type 1-coated”, “medium. (viii)” for “medium. (i)”, “confluency.” for “confluency. The cells were washed three times with phosphate-buffered physiological saline.”

[2] = test system: proliferating cell nuclear antigen (PCNA); test: Western blotting of PCNA (proliferation) in salivary gland cells; settings: salivary gland cells in Rock inhibitor-containing medium; relative to α-tubulin; FIG. 6A
Description: Primary cultured salivary gland cells were cultured in a medium containing a Rock inhibitor and analyzed for their proliferation by Western blotting of proliferating cell nuclear antigen (PCNA: Santa Cruz) and for their apoptosis by Western blotting of caspase-3 (CST). For analysis of their immortalization, the expression of telomerase reverse transcriptase (TERT) was analyzed by quantitative RT-PCR assay.
The protein levels of PCNA and caspase-3 were measured by Western blotting. In addition, α-tubulin was used as an endogenous control.
(i) A protein extract was electrophoresed on a 4% to 12% polyacrylamide gel (Invitrogen).
(ii) The proteins were transferred onto a nitrocellulose membrane (Invitrogen).
(iii) The membrane was washed with Tris-buffered saline containing 0.1% Tween-20 (WaKo) (TBST), and then blocked with Blocking One (Nacalai Tesque, Inc., Japan) for 30 minutes. […]
(vi) The membrane was reacted at room temperature for 1 hour with horseradish peroxidase (HRP)-conjugated secondary antibody (Promega) and then treated with Super Signal West Pico Chemiluminescent substrate (Thermo) to develop signals for visualization purposes. The intensity of signals was quantified with a CS analyzer (ATTO) and expressed as a relative value in comparison with the protein level of α-tubulin measured as a control.

[3] = test system: oral mucosal epithelial cells; test: Cell culture of oral mucosal epithelial cells using a Rho kinase inhibitor (cell morphology); settings: inhibitor-containing medium (10 μM); passage 5 with inhibitor vs passage 0 without; FIG. 12
Description: as §1, with “Odontoma cells, oral mucosal epithelial cells, fibroblasts, and cancer-associated fibroblasts (CAFs) (i)” for “(i)”, “Patient-derived” for “Patient-derived salivary gland”, “amount as described above.” for “amount from the labial glands of each patient.”, “type I-coated” for “type 1-coated”, “medium. (viii)” for “medium. (i)”, “confluency.” for “confluency. The cells were washed three times with phosphate-buffered physiological saline.”

odontoma cells = test: Cell culture of odontoma cells using a Rho kinase inhibitor (cell morphology); settings: inhibitor-containing medium (10 μM); passage 5 with inhibitor vs passage 0 without; FIG. 11
Description: as §1, with “Odontoma cells, oral mucosal epithelial cells, fibroblasts, and cancer-associated fibroblasts (CAFs) (i)” for “(i)”, “Patient-derived” for “Patient-derived salivary gland”, “amount as described above.” for “amount from the labial glands of each patient.”, “type I-coated” for “type 1-coated”, “medium. (viii)” for “medium. (i)”, “confluency.” for “confluency. The cells were washed three times with phosphate-buffered physiological saline.”

Structure (SMILES): CC(N)[C@H]1CC[C@H](C(=O)Nc2ccncc2)CC1 (stereo partly drawn) [Rock inhibitor, (R)-(+)-trans-N-(4-pyridyl)-4-(1-aminoethyl)-cyclohexanecarboxamide]
- cell morphology of salivary gland cells on repeated subculture (salivary gland cells): maintain their cell morphology arranged in a cobblestone pattern even when repeatedly subcultured
- cell morphology of cancer-associated fibroblasts on repeated subculture [1]: maintain their cell morphology even when repeatedly subcultured
- PCNA expression [2]: no difference was observed
- cell morphology of oral mucosal epithelial cells on repeated subculture [3]: maintain their cell morphology even when repeatedly subcultured
- cell morphology of odontoma cells on repeated subculture (odontoma cells): maintain their cell morphology even when repeatedly subcultured

From patent publication US20170349879A1, “METHOD FOR CULTURING NORMAL CELLS AND ODONTOMA CELLS CONTAINED IN ORAL TISSUE” (CHIBA UNIVERSITY, priority 2014, published 2017)
